The molecules below were run against T1, human β-Secretase (soluble part, AA 1-AA 460, sBACE-Fc) (Homo sapiens, UniProt P56817) (assay: TR-FRET assay (β-secretase enzyme)).
T1 construct: The soluble part of the human β-Secretase (AA 1-AA 460) was cloned; made in house
T1 sequence (P56817 22-460): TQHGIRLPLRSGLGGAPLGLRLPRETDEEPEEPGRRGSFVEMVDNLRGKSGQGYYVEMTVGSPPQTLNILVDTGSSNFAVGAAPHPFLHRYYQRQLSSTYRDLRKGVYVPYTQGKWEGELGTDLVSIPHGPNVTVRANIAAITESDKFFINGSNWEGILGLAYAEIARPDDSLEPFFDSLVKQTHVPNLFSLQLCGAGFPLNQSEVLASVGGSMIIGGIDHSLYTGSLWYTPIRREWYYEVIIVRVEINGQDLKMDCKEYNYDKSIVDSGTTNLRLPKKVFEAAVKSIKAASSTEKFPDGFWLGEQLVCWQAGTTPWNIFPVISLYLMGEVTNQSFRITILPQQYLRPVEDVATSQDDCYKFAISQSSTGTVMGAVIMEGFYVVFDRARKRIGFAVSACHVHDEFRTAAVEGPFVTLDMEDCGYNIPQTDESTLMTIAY
Type: biochemical
Description: The enzyme used in the IGEN Cleavage-, Fluorescent-, TR-FRET- and BiaCore assays is described as follows:
The soluble part of the human β-Secretase (AA 1-AA 460) was cloned into the ASP2-Fc10-1-IRES-GFP-neoK mammalian expression vector. The gene was fused to the Fc domain of IgG1 (affinity tag) and stably cloned into SEEK 293 cells. Purified sBACE-Fc is stored in Tris buffer, pH 9.2 and has a purity of 95%.
Enzyme was diluted to 6 μg/mL and the substrate (Europium)[…](Qsy7) to 200 nM in reaction buffer (NaAcetate, chaps, triton x-100, EDTA pH 4.5). Compounds were diluted to the desired concentration in dimethyl sulfoxide (final dimethyl sulfoxide concentration in assay is 5%). […] Enzyme (9 μL) and 1 μL of compound in dimethyl sulfoxide was added to the plate, mixed and pre-incubated for 10 min. Substrate (10 μL) was added and the reaction proceeded in the dark for 15 min at RT. The reaction was stopped with the addition of 7 μL NaAcetate, pH 9. The fluorescence of the product was measured on a Victor II plate reader with an excitation wavelength of 340 nm and an emission wavelength of 615 nm. […] The dimethyl sulfoxide control defined the 100% activity level and 0% activity was defined by exclusion of the enzyme (using reaction buffer instead).
Molecule CN1C(=O)C(c2ccc(S(F)(F)(F)(F)F)cc2)(c2ccc(F)c(-c3cccnc3F)c2)N=C1N (centres unmarked) [Example 28, 2-amino-5-[4-fluoro-3-(2-fluoropyridin-3-yl)phenyl]-3-methyl-5-[4-(pentafluoro-λ^6-sulfanyl)phenyl]-3,5-dihydro-4H-imidazol-4-one 0.25 acetate] has an IC50 of 69 nM. Molecule CN1C(=O)C(c2ccc(S(F)(F)(F)(F)F)cc2)(c2cccc(-c3cncnc3)c2)N=C1N (centres unmarked) [Example 32, 2-amino-3-methyl-5-[4-(pentafluoro-λ^6-sulfanyl)phenyl]-5-(3-pyrimidin-5-ylphenyl)-3,5-dihydro-4H-imidazol-4-one] has an IC50 of 55 nM. Work on CN1C(=O)C(c2ccc(S(F)(F)(F)(F)F)cc2)(c2cccc(-c3cccc(Cl)c3F)c2)N=C1N (centres unmarked) [Example 46, 2-amino-5-(3′-chloro-2′-fluorobiphenyl-3-yl)-3-methyl-5-[4-(pentafluoro-λ^6-sulfanyl)phenyl]-3,5-dihydro-4H-imidazol-4-one] yielded an IC50 of 694 nM. With CN1C(=O)C(c2ccc(S(F)(F)(F)(F)F)cc2)(c2ccc(F)c(-c3cnccc3C#N)c2)N=C1N (centres unmarked) [Example 29, 3-(5-{2-amino-1-methyl-5-oxo-4-[4-(pentafluoro-λ^6-sulfanyl)phenyl]-4,5-dihydro-1H-imidazol-4-yl}-2-fluorophenyl)isonicotinonitrile 0.25 acetate] the IC50 was 81 nM. CN1C(=O)C(c2ccc(S(F)(F)(F)(F)F)cc2)(c2cccc(-c3cncc(F)c3)c2)N=C1N (centres unmarked) [Example 35, 2-amino-5-[3-(5-fluoropyridin-3-yl)phenyl]-3-methyl-5-[4-(pentafluoro-λ^6 sulfanyl)phenyl]-3,5-dihydro-4H-imidazol-4-one] was tested, and the IC50 was 68 nM.
